Several values for one entry are separate records, joined by “and”; a condition that tells them apart may be missing. Equal entries are not always repeated. Toxic doses and inconclusive results are not listed. The calls were made as follows: active = survival T/C of 150% or more; inactive = T/C below 125% in these data.
Tested on: CD2F1 mice, L1210 leukemia ip, survival T/C
Assay: NCI In Vivo Anticancer Drug Screen. Data for tumor model L1210 Leukemia (intraperitoneal) in CD2F1 (CDF1) mice
Conditions: higher = longer survival
Method in brief: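 Each value reflects a quotient of treated over vehicle control outcomes in mice with a transplanted tumor.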

[1] = endpoint: mean survival time, dose: 12.5 mg/kg/injection, schedule: Q01DX005 (ip), vehicle: water
[2] = endpoint: mean survival time, dose: 25.0 mg/kg/injection, schedule: Q01DX005 (ip), vehicle: water
[3] = endpoint: mean survival time, dose: 50.0 mg/kg/injection, schedule: Q01DX005 (ip), vehicle: water
[4] = endpoint: mean survival time, dose: 100.0 mg/kg/injection, schedule: Q01DX005 (ip), vehicle: water
[5] = endpoint: mean survival time, dose: 25.0 mg/kg/injection, schedule: Q04DX003 (ip), vehicle: saline
[6] = endpoint: mean survival time, dose: 50.0 mg/kg/injection, schedule: Q04DX003 (ip), vehicle: saline

Measured: T/C

CCCCCCCCCCCCCCCC[n+]1cccc(C(=O)NCO)c1
inactive: endpoint: mean survival time, dose: 6.25 mg/kg/injection, schedule: Q01DX009 (ip), vehicle: saline with Tween-80 102 % of control | endpoint: mean survival time, dose: 12.5 mg/kg/injection, schedule: Q01DX009 (ip), vehicle: saline with Tween-80 95 % of control | endpoint: mean survival time, dose: 25.0 mg/kg/injection, schedule: Q01DX009 (ip), vehicle: saline with Tween-80 95 % of control | endpoint: mean survival time, dose: 50.0 mg/kg/injection, schedule: Q04DX003 (ip), vehicle: saline with Tween-80 103 % of control | endpoint: mean survival time, dose: 200.0 mg/kg/injection, schedule: Q04DX003 (ip), vehicle: saline with Tween-80 103 % of control

Nc1ccn(C2OC(CO)C3OP(=O)(O)OC32)c(=O)n1 (centres undefined)
inactive: [1] 96 % of control | [2] 99 % of control | [3] 99 % of control | [4] 94 % of control | endpoint: mean survival time, dose: 200.0 mg/kg/injection, schedule: Q01DX005 (ip), vehicle: water 96 % of control

Nc1ncnc2c1ncn2CCC(=O)O
inactive: endpoint: mean survival time, dose: 100.0 mg/kg/injection, schedule: Q01DX001 (ip), vehicle: saline with Tween-80 94 % of control | endpoint: mean survival time, dose: 100.0 mg/kg/injection, schedule: Q04DX002 (ip), vehicle: saline with Tween-80 105 % of control | endpoint: mean survival time, dose: 200.0 mg/kg/injection, schedule: Q01DX001 (ip), vehicle: saline with Tween-80 92 % of control | endpoint: mean survival time, dose: 200.0 mg/kg/injection, schedule: Q04DX002 (ip), vehicle: saline with Tween-80 97 % of control | endpoint: mean survival time, dose: 400.0 mg/kg/injection, schedule: Q01DX001 (ip), vehicle: saline with Tween-80 90 % of control | endpoint: mean survival time, dose: 400.0 mg/kg/injection, schedule: Q04DX002 (ip), vehicle: saline with Tween-80 105 % of control

CCC(C(=O)O)C(=O)O.[NH-]CC1CCCC[N-]1.[Pt+2]
inactive: endpoint: mean survival time, dose: 3.13 mg/kg/injection, schedule: Q04DX003 (ip), vehicle: saline 98 % of control | [5] 115 % of control | [6] 124 % of control | endpoint: median survival time, dose: 200.0 mg/kg/injection, schedule: Q04DX003 (ip), vehicle: distilled water + Tween-80 103 % of control

CCC[CH2][Sn]1([CH2]CCC)[O]C2C(CO)OC(n3cnc4c(N)ncnc43)C2[O]1 (centres undefined)
inactive: endpoint: mean survival time, dose: 0.2 mg/kg/injection, schedule: Q01DX005 (ip), vehicle: other 107 % of control | endpoint: mean survival time, dose: 0.39 mg/kg/injection, schedule: Q01DX005 (ip), vehicle: other 104 % of control | endpoint: mean survival time, dose: 0.78 mg/kg/injection, schedule: Q01DX005 (ip), vehicle: other 104 % of control | endpoint: mean survival time, dose: 1.56 mg/kg/injection, schedule: Q01DX005 (ip), vehicle: other 102 % of control and 107 % of control | endpoint: mean survival time, dose: 3.13 mg/kg/injection, schedule: Q01DX005 (ip), vehicle: other 103 % of control and 110 % of control

C=CCCCCCCCCC(=O)NCC1CC1
inactive: endpoint: mean survival time, dose: 100.0 mg/kg/injection, schedule: Q01DX009 (ip), vehicle: saline with Tween-80 94 % of control | endpoint: mean survival time, dose: 200.0 mg/kg/injection, schedule: Q01DX009 (ip), vehicle: saline with Tween-80 100 % of control | endpoint: mean survival time, dose: 400.0 mg/kg/injection, schedule: Q01DX009 (ip), vehicle: saline with Tween-80 86 % of control

O=C1NC(=O)c2ccc3c4c(ccc1c24)C(=O)NC3=O
inactive: endpoint: mean survival time, dose: 15.5 mg/kg/injection, schedule: Q01DX009 (ip), vehicle: saline with Tween-80 100 % of control | endpoint: mean survival time, dose: 31.0 mg/kg/injection, schedule: Q01DX009 (ip), vehicle: saline with Tween-80 94 % of control | endpoint: mean survival time, dose: 62.0 mg/kg/injection, schedule: Q01DX009 (ip), vehicle: saline with Tween-80 100 % of control | endpoint: mean survival time, dose: 62.5 mg/kg/injection, schedule: Q01DX009 (ip), vehicle: saline with Tween-80 98 % of control

Cc1cn(C2OC(CO)C(O)C2Cl)c(=O)nc1N (centres undefined)
inactive: endpoint: median survival time, dose: 12.5 mg/kg/injection, schedule: Q01DX005 (ip), vehicle: saline 101 % of control | endpoint: median survival time, dose: 25.0 mg/kg/injection, schedule: Q01DX005 (ip), vehicle: saline 104 % of control | endpoint: median survival time, dose: 50.0 mg/kg/injection, schedule: Q01DX005 (ip), vehicle: saline 104 % of control | endpoint: median survival time, dose: 100.0 mg/kg/injection, schedule: Q01DX005 (ip), vehicle: saline 101 % of control | endpoint: median survival time, dose: 200.0 mg/kg/injection, schedule: Q01DX005 (ip), vehicle: saline 96 % of control

Cc1nc2c(ncn2C2OC3COP(=O)(O)OC3C2O)c2nccn12 (centres undefined)
inactive: [1] 95 % of control | [2] 100 % of control | [3] 90 % of control | [4] 106 % of control

CCOC(=O)C(Cc1ccc(Cl)cc1)P(=O)(OCC)OCC (centres undefined)
inactive: endpoint: mean survival time, dose: 100.0 mg/kg/injection, schedule: Q01DX001 (ip), vehicle: saline 106 % of control | endpoint: mean survival time, dose: 200.0 mg/kg/injection, schedule: Q01DX001 (ip), vehicle: saline 101 % of control | endpoint: mean survival time, dose: 400.0 mg/kg/injection, schedule: Q01DX001 (ip), vehicle: saline 106 % of control

CN(C)Cc1[c-]c(CN(C)C)ccc1.[Br][Pt]
inactive: endpoint: mean survival time, dose: 3.12 mg/kg/injection, schedule: Q04DX003 (ip), vehicle: saline 96 % of control | endpoint: mean survival time, dose: 6.25 mg/kg/injection, schedule: Q04DX003 (ip), vehicle: saline 97 % of control | endpoint: mean survival time, dose: 12.5 mg/kg/injection, schedule: Q04DX003 (ip), vehicle: saline 97 % of control | [5] 108 % of control | [6] 97 % of control | endpoint: mean survival time, dose: 100.0 mg/kg/injection, schedule: Q04DX003 (ip), vehicle: saline 105 % of control | endpoint: mean survival time, dose: 200.0 mg/kg/injection, schedule: Q04DX003 (ip), vehicle: saline 100 % of control

CN(C)[C@@H]1C(=O)C(C(=O)NCNC(CO)(CO)CO)=C(O)[C@@]2(O)C(=O)C3=C(O)c4c(O)cccc4[C@@](C)(O)[C@H]3C[C@@H]12
inactive: endpoint: mean survival time, dose: 200.0 mg/kg/injection, schedule: Q01DX009 (ip), vehicle: saline 93 % of control | endpoint: mean survival time, dose: 264.0 mg/kg/injection, schedule: Q01DX009 (ip), vehicle: acetone 97 % of control | endpoint: mean survival time, dose: 300.0 mg/kg/injection, schedule: Q01DX009 (ip), vehicle: saline 98 % of control | endpoint: mean survival time, dose: 400.0 mg/kg/injection, schedule: Q01DX009 (ip), vehicle: acetone 92 % of control

O=C(O)c1cccc(N=Nc2ccc(N(CCCl)CCCl)cc2)c1
inactive: endpoint: mean survival time, dose: 10.0 mg/kg/injection, schedule: Q01DX009 (ip), vehicle: Klucel (hydroxypropylcellulose) (HPC) 121 % of control | endpoint: mean survival time, dose: 20.0 mg/kg/injection, schedule: Q01DX009 (ip), vehicle: Klucel (hydroxypropylcellulose) (HPC) 97 % of control | endpoint: mean survival time, dose: 40.0 mg/kg/injection, schedule: Q01DX009 (ip), vehicle: Klucel (hydroxypropylcellulose) (HPC) 89 % of control

NC1=NN(c2ccccc2)CC1
inactive: endpoint: mean survival time, dose: 5.0 mg/kg/injection, schedule: Q01DX009 (ip), vehicle: saline with Tween-80 96 % of control | endpoint: mean survival time, dose: 5.0 mg/kg/injection, schedule: Q04DX003 (ip), vehicle: saline with Tween-80 94 % of control | endpoint: mean survival time, dose: 10.0 mg/kg/injection, schedule: Q01DX009 (ip), vehicle: saline with Tween-80 96 % of control | endpoint: mean survival time, dose: 10.0 mg/kg/injection, schedule: Q04DX003 (ip), vehicle: saline with Tween-80 91 % of control | endpoint: mean survival time, dose: 20.0 mg/kg/injection, schedule: Q01DX009 (ip), vehicle: saline with Tween-80 106 % of control | endpoint: mean survival time, dose: 20.0 mg/kg/injection, schedule: Q04DX003 (ip), vehicle: saline with Tween-80 86 % of control
